Laboratory results: patent publication US8389523B2, “Substituted quinoxaline and an agrochemical composition thereof” (Kumiai Chemical Industry Co., Ltd., priority 2007, dated 2013)

Tests used:
Format in all cases: in vivo
Parameters in all cases: scale not given here
[1] = test system: Abutilon theophrasti medicus; experiment: Herbicidal effects in upland field foliar treatment (Test Example 3); conditions: criteria of Table 138; for herbicidal effects on Abutilon theophrasti medicus: 1000 g of the active ingredient per hectare, 14th day after the treatment, wettable powder
Outline: (§1)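 Weeds were sown in upland field soil and grown two weeks in a greenhouse before a foliar spray over the whole plant. Wettable powder was diluted in water and applied at 1000 L/ha, delivering 1000 g active ingredient/ha. Herbicidal effect was scored against set rating criteria 14 days after treatment.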

Amaranthus viridis L. [2] = experiment: as above; conditions: criteria of Table 138; for herbicidal effects on Amaranthus viridis L.: 1000 g of the active ingredient per hectare, 14th day after the treatment, wettable powder
Outline: as §1

[3] = test system: Echinochloa crus-galli (L.) P. Beauv. var. crus-galli; experiment: as above; conditions: criteria of Table 138; for herbicidal effects on Echinochloa crus-galli (L.) P. Beauv. var. crus-galli: 1000 g of the active ingredient per hectare, 14th day after the treatment, wettable powder
Outline: as §1

[4] = test system: Echinochloa oryzicola Vasing; experiment: Herbicidal effects in paddy field soil treatment (Test Example 1); conditions: for Herbicidal effects index, Echinochloa oryzicola Vasing: paddy field soil treatment, 1000 g of the active ingredient per hectare, wettable powder added dropwise on water surface, 21st day after treatment
Outline: (§2)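 Weed seeds were sown into puddled, leveled paddy soil in pots and flooded to 3 cm water depth. One day later the diluted wettable powder formulation was dropped onto the water surface at 1000 g active ingredient per hectare. Herbicidal effect was scored on day 21 after greenhouse growth.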

[5] = test system: Scirpus juncoides Roxb. var. ohwianus. T. Koyama; experiment: as above; conditions: for Herbicidal effects index, Scirpus juncoides Roxb. var. ohwianus. T. Koyama: paddy field soil treatment, 1000 g of the active ingredient per hectare, wettable powder added dropwise on water surface, 21st day after treatment
Outline: as §2

[6] = test system: Monochoria vaginalis (Burm. f.) Presl var. plantaginea (Roxb.) Solms-Laub.; experiment: as above; conditions: for Herbicidal effects index, Monochoria vaginalis (Burm. f.) Presl var. plantaginea (Roxb.) Solms-Laub.: paddy field soil treatment, 1000 g of the active ingredient per hectare, wettable powder added dropwise on water surface, 21st day after treatment
Outline: as §2

[7] = test system: Abutilon theophrasti medicus; experiment: Herbicidal effects in upland field soil treatment (Test Example 2); conditions: 1000 g active ingredient per hectare, 21st day after treatment, criteria of Table 138
Outline: (§3)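 Pre-emergence soil application: seeds sown in upland field soil, covered, then wettable powder diluted in water sprayed on the soil surface at 1000 g active ingredient/ha in 1000 L/ha. Plants grown in greenhouse; herbicidal effect scored on a rating scale 21 days after treatment.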

Amaranthus viridis L. [8] = experiment: as above; conditions: 1000 g active ingredient per hectare, 21st day after treatment, criteria of Table 138
Outline: as §3

[9] = 1000 g active ingredient per hectare, 14th day after treatment
[10] = paddy field soil treatment (Test Example 1), criteria of Table 138

SMILES	herbicidal effects on Abutilon theophrasti medicus [1]	herbicidal effects on Amaranthus viridis L. (Amaranthus viridis L. [2])	herbicidal effects on Echinochloa crus-galli (L.) P. Beauv. var. crus-galli [3]	Herbicidal effects index, Echinochloa oryzicola Vasing [4]	Herbicidal effects index, Scirpus juncoides Roxb. var. ohwianus. T. Koyama [5]	Herbicidal effects index, Monochoria vaginalis (Burm. f.) Presl var. plantaginea (Roxb.) Solms-Laub. [6]	herbicidal effect (index) on Abutilon theophrasti medicus [7]	herbicidal effect (index) on Amaranthus viridis L. (Amaranthus viridis L. [8])	herbicidal effect (index) on Abutilon theophrasti medicus [1, 9]	herbicidal effect (index) on Amaranthus viridis L. (Amaranthus viridis L. [2]; [9])	herbicidal effect (index) on Echinochloa crus-galli (L.) P. Beauv. var. crus-galli [3, 9]	herbicidal effect (index) on Echinochloa oryzicola Vasing [4, 10]	herbicidal effect (index) on Scirpus juncoides Roxb. var. ohwianus. T. Koyama [5, 10]	herbicidal effect (index) on Monochoria vaginalis (Burm. f.) Presl var. plantaginea (Roxb.) Solms-Laub. [6, 10]
O=C1CCCC(O)=C1C(=O)c1nc2cccnc2n(COCC(F)(F)F)c1=O [III-59]	5	5	5	5	5	5	5	5	–	–	–	–	–	–
O=C1CCCC(O)=C1C(=O)c1nc2ccccc2n(Cc2ccccc2)c1=O [Compound I-107]	–	–	–	4	5	5	5	5	5	5	4	–	–	–
O=C1CCCC(O)=C1C(=O)c1nc2cc(F)ccc2n(-c2ccccc2)c1=O [II-237]	5	5	5	5	5	5	5	5	–	–	–	–	–	–
O=C(C1=C(O)C2CCC(C2)C1=O)c1nc2cccnc2n(-c2ccccc2)c1=O (stereo not drawn) [IV-4]	5	5	5	5	5	5	5	5	–	–	–	–	–	–
Cn1c(=O)c(C(=O)C2=C(O)CCCC2=O)nc2cccnc21 [III-2]	5	5	5	5	5	5	5	5	–	–	–	–	–	–
O=C1CCCC(O)=C1C(=O)c1nc2cccnc2n(-c2ccccc2OC(F)F)c1=O [IV-85]	5	5	5	–	–	–	5	5	–	–	–	5	5	5
